Source: article PMC3692424, “A New Type of Na^+-Driven ATP Synthase Membrane Rotor with a Two-Carboxylate Ion-Coupling Motif” (PLoS Biology, 2013)

Tests used:
[1] = target: T1, F. nucleatum F1Fo-ATP synthase (purified; c-ring site of DCCD) (Fusobacterium nucleatum, UniProt Q8RGD7); experiment: inhibition of ATP hydrolysis, ATP-regenerating assay; assay type: biochemical; conditions: covalent (Glu65 of subunit c); 20 min preincubation at 25 °C, 50 mM MOPS, 2 mM MgCl2, pH 7.5; no added Na+
T1 construct: gene atpE; same native holoenzyme as P1; entry split because DCCD modifies Glu65 of subunit c; with ATP synthase subunit alpha; ATP synthase subunit beta; ATP synthase gamma chain; ATP synthase subunit delta; ATP synthase epsilon chain; ATP synthase subunit a; ATP synthase subunit b

[2] = target: T2, F. nucleatum c11 ring (isolated c-ring) (Fusobacterium nucleatum, UniProt Q8RGD7); experiment: fluorescence increase on labelling; SDS-PAGE under UV light; assay type: binding; conditions: covalent (Glu65); 100 µM NCD-4, MES pH 5.7, 1.5% n-octyl-β-D-glycoside, no Na+
T2 construct: gene atpE; isolated c11 ring from hybrid ATP synthase (I. tartaricus F1-ab2) expressed in E. coli DK8; detergent-solubilized
T2 sequence (Q8RGD7 whole entry): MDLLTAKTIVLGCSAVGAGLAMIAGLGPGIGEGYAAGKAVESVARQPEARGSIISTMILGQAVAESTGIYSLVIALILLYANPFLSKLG

Compound	inhibition of ATP hydrolysis, ATP-regenerating assay [1]	fluorescence increase on labelling; SDS-PAGE under UV light [2]
C(=NC1CCCCC1)=NC1CCCCC1 [DCCD, N,N′-dicyclohexylcarbodiimide]	The ATPase activity of the enzyme was inhibited by DCCD in a concentration-dependent manner	–
CN(C)c1ccc(N=C=NC2CCCCC2)c2ccccc12 [NCD-4, N-cyclohexyl-N′-(4-(dimethylamino)-α-naphthyl)-carbodiimide]	–	NCD-4 modifies Glu65 in the isolated c-ring
